Measured values published in publication PMC6940896, “Development of a Highly Efficient Hybrid Peptide That Increases Immunomodulatory Activity Via the TLR4-Mediated Nuclear Factor-κB Signaling Pathway” (International Journal of Molecular Sciences, 2019).
Each block holds one molecule with its values, some of them ahead of it.

What was measured:
[1] = tested on: peritoneal macrophages; assay: Peritoneal macrophage phagocytosis (neutral red uptake) in CTX-immunosuppressed mice; assay type: in vivo, mouse; details: peritoneal macrophages of mice, OD 540 nm, CTX 80 mg/kg ip days 1-3, peptide 10 mg/kg ip days 4-10, control group 55.67%, n = 12
Experimental: For the first 3 days, CTX (80 mg/kg mouse weight) was administered intraperitoneally once daily to establish the immunosuppressed animal model. From days 4 to 10 (7 days), peptides (10 mg/kg mouse weight) were administered intraperitoneally each day. The CTX group was only treated with CTX, and the control group was given sterile saline. The dose volume was 200 μL. Twenty-four hours after the last dose, the mice were killed and their tissues and blood collected for analysis.
Peritoneal macrophages were aseptically obtained from the different groups of mice by peritoneal lavage with 5 mL ice-cold phosphate-buffered saline (PBS). The peritoneal macrophages were further isolated by incubating peritoneal exudate cells at 37 °C in a moist atmosphere (5% CO2, 95% air) for 3 h to allow the cells to adhere. The adherent cells were washed twice and collected as peritoneal macrophages.
The phagocytic capacity of the peritoneal macrophages was measured by the neutral red uptake method [52]. […] The OD was measured using a microplate reader at 540 nm. The phagocytic rate was calculated in the following way:(4) hagocytic rate (%)=OD540(sample)/OD540(control) ×100% where OD540 (sample) is the absorbance at 540 nm by peptide-treated cells and OD540 (control) is the absorbance at 540 nm by the cells without peptides treated.

[2] = Ex vivo stability in plasma; assay type: in vitro ADME; details: rat plasma, in vitro, 37 °C, HPLC, log-linear regression; mean ± SEM of three biological replicates; read-out: t1/2, half-life in plasma (converted)
Experimental: The samples were collected into pre-chilled tubes containing 1 mL of acidic acetone (hydrochloric acid/acetone/H2O, 1:40:5, by volume). Subsequently, the mixture was centrifuged at 2 × 10^4 rpm at 4 °C for 20 min. The precipitates were dried in vacuo. The dried precipitates were dissolved in 0.5 mL of 1 M acetic acid. The peptide analysis was carried out according to the protocol for the study of Tα1 using HPLC [51]. The half-lives of the target peptides were calculated by a logarithm-linear regression analysis of the peptide concentrations.

[3] = biological target: T1, recombinant TLR4/MD2 complex (UniProt Q9QUK6 26-638; Q9JHF9 19-160); assay: SPR; TLR4/MD2 immobilised by amino coupling on a ProteOn GLH chip (ProteOn XPR36); LTAa passed over at 0, 1.25, 2.5, 5 and 10 μM (methods print mM); 25 °C; PBS with 0.1% Tween 20 and 2% DMSO; 30 μL/min; global fit, homogeneous 1:1 model; details: both partners purified
T1 construct: Toll-like receptor 4 (TLR4) of the recombinant TLR4/MD2 complex; MD-2 (MD2, lymphocyte antigen 96) of the recombinant TLR4/MD2 complex; source: bought: R&D Systems
T1 sequence (looked up) 1: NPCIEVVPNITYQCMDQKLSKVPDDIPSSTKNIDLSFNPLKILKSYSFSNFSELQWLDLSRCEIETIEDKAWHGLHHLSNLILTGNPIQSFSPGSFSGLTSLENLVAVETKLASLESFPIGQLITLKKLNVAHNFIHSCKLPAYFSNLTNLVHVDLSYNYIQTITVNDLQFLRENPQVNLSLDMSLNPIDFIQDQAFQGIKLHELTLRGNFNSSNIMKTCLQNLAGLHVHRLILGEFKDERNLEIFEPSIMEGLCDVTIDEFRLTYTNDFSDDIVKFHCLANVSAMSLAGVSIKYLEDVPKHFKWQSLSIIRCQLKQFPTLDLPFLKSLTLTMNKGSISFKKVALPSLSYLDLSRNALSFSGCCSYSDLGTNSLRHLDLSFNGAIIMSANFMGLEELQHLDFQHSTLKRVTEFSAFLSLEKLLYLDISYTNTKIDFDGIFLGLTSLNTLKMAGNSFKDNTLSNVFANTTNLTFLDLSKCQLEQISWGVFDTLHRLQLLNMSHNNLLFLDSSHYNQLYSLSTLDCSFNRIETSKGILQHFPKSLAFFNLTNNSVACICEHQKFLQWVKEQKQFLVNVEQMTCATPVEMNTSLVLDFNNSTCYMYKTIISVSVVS
T1 sequence (looked up) 2: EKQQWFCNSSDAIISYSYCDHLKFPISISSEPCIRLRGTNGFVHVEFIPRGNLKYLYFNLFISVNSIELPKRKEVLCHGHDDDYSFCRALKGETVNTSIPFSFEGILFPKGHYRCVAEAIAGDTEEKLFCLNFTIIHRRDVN

Molecule: O=P1(N(CCCl)CCCl)NCCCO1 (stereo not drawn) [CTX, cyclophosphamide, reference compound]
macrophage phagocytic rate [1]: 31.93%

Molecule: CC[C@H](C)[C@H](NC(=O)[C@H](CCCCN)NC(=O)[C@H](CCC(=O)O)NC(=O)[C@H](CCCCN)NC(=O)[C@H](CO)NC(=O)[C@H](CCCCN)NC(=O)[C@H](CCCNC(=N)N)NC(=O)[C@H](Cc1ccccc1)NC(=O)[C@H](Cc1ccccc1)NC(=O)[C@H](CC(=O)O)NC(=O)CNC(=O)[C@H](CC(C)C)NC(=O)[C@@H](N)CC(C)C)C(=O)NCC(=O)N[C@@H](CCCCN)C(=O)N[C@@H](CCC(=O)O)C(=O)N[C@@H](Cc1ccccc1)C(=O)N[C@@H](CCCCN)C(=O)N[C@@H](CCCNC(=N)N)C(=O)N[C@H](C(=O)N[C@H](C(=O)N[C@@H](CCC(N)=O)C(=O)N[C@@H](CCCNC(=N)N)C(=O)N[C@H](C(=O)N[C@@H](CCCCN)C(=O)N[C@@H](CC(=O)O)C(=O)N[C@@H](Cc1ccccc1)C(=O)N[C@@H](CC(C)C)C(=O)N[C@@H](CCCNC(=N)N)C(=O)N[C@@H](CC(N)=O)C(=O)N[C@@H](CC(C)C)C(=O)N[C@H](C(=O)N1CCC[C@H]1C(=O)N[C@@H](CCCNC(=N)N)C(=O)N[C@H](C(=O)N[C@@H](CCC(=O)O)C(=O)N[C@@H](CO)C(=O)O)[C@@H](C)O)C(C)C)[C@@H](C)CC)C(C)C)[C@@H](C)CC [LL-37]
half-life [2]: 3.1 ± 0.87 h

Kd [3]: 0.0491 nM
B1: LL-37-Tα1a hybrid peptide (LTAa) (peptide)
peptide: IGKEFKRIVQRIKDFLRNLVPRTEKEKKEVVE
notes: LL-37, human cationic host-defense peptide, residues 13-36; Thymosin alpha-1 (Tα1), residues 17-24 (Tα1a); (32 residues); source: synthetic peptide (solid-phase, KangLong Biochemistry; purity >95%)
